Entries after “also recorded” stand apart in the source; their conditions may differ.
Key:
[1] = target: T1, APP-Tau binding (Homo sapiens, UniProt P10636); test: ELISA: peptide inhibition of Tau and APP protein binding; conditions: peptides or combinations 1 μg/ml, four hours at RT before APP protein; anti Aß detection
T1 construct: purchased Bio-Legend US
Protocol: An ELISA plate (96 wells) was coated with Tau protein 1 μg/ml in bicarbonate PH=8.2 50 μl/well, then incubated overnight at 4° C. Peptides and their combinations were also incubated overnight at 4° C. in PBS 1 μg/ml. The next day, the plate was washed 3× with PBS and blocked with 3% BSA/PBS for two hours at RT. The plate was washed again 3× with PBS and peptides or their combinations 50 ul/well were added for four hours at RT. The plate was washed again 3× with PBS and APP protein, 1 μg/ml 50 μl/well was added for ON incubation at 4° C. The next day, the plate was washed 3× with PBS, following which anti Aß 1-16 (1 mg/ml) was added (1:500 dilution 50 μl/well) for two hours at RT. The plate was washed again and anti-mouse HRP antibodies (1:10,000 dilution in PBS 1% BSA) added at 50 μl/well. Color reaction was stopped with 50 μl/well of 1M H2S04 and read at 0.D. 450.

[2] = system: Tau; conditions: previously reported (19); cited from earlier work
[3] = system: mice; test: Y maze behavior test of APP1 peptide flexibly linked to Tau peptide; type: in vivo; conditions: treated mice vs control treated mice (PBS), FIG. 6
Text: The Y-maze test (45) consists of two trials, first “training” and second “retention”, separated by an inter-trial interval (ITI). Each arm of the Y-maze was equipped with a guillotine door that could be operated manually. The three identical arms were randomly designated as follows: the “start” (steam) arm, in which the mouse began to explore the maze (always open); the “Novel” arm, which was closed off during the first trial, but open in the second one; and the “other” arm (always open). The first (training) trial lasted five minutes and allowed the mouse to explore only two arms (“start” and “other”) of the maze. Access to the third (“Novel”) arm was blocked. The second trial (retention) was conducted after a two minute ITL. During this three minute trial, all three arms were accessible. The mouse was returned to the same starting arm and was allowed to explore all three arms. Retention was scored as a preferential index to the “Novel” arm, that was calculated as follows: time spent in the “Novel” arm minus the time spent in the old arm divided by the sum of time spent in both arms (46).
An additional experiment was carried out testing the effects of the APP1 peptide flexibly linked to the TAU peptide on behavior as tested in the Y maze.

[4] = system: hippocampus; test: Number of elements and % of area in the hippocampus (Table 3); type: in vivo, mice
Protocol: Mice were sacrificed (trans-cardially punctured, and saline-perfused). The right brain hemisphere of each mouse was stored at −70° C. to quantify Aβ levels. The left hemispheres were fixed (4% paraformaldehyde) and prepared for paraffin blocks which were cut into six micron sagittal sections and used for histological staining and examination. Sagittal brain sections were stained with Congo red dye (Sigma-Aldrich) and visualized by fluorescence microscopy. Quantification of amyloid depositions was done for the whole hippocampal area in a blinded fashion using Imaging Research software from the National Institutes of Health in an unbiased stereological approach.

T1 sequence (P10636 1-441 isoform P10636-8): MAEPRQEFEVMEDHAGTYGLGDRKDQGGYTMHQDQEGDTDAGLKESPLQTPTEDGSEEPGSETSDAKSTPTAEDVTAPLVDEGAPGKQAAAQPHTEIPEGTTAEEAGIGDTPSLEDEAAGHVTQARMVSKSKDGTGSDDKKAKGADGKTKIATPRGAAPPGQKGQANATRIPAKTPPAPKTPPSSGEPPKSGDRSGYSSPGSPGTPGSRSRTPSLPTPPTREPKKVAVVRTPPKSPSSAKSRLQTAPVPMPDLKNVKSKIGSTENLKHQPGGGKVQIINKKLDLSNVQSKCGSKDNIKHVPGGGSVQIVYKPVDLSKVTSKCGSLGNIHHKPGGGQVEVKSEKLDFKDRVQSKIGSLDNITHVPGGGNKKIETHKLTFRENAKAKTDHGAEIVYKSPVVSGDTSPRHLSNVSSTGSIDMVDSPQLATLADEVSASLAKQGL

Row | Sequence | inhibition of APP protein binding to Tau coated plate [1] | binding to Tau [2] | Y maze preferential index (cognitive ability) [3] | % of area [4] [%] | Number of elements [4]
1 | ATVIVITLVMLKKKQYTS [APP2, reference compound] | not inhibited | bind Tau |  |  | 
2 | GLGDRKDQGGYTMHQD [Tau1, synthetic peptide from N-terminal end of Tau protein (residues 19-34)] | not inhibited |  |  |  | 
3 | HFQKAKERLEAKHRERMSQVMRE [APP1, synthetic peptide from APP protein, APP1 (390-412)] | significant but partial inhibition; also recorded: significant, but partial inhibition |  |  |  | 
4 | HFQKAKERLEAKHRERMSQVMREGGGGSGGGGSGGGGSGLGDRKDQGGYTMHQD (example of a peptide which comprises an APP derived peptide linked by a flexible peptide linker to a TAU derived peptide) |  |  | improve | 1.9 | 112
